Data on ten substances can be found in publication PMC6519479 (Molecular systems design & engineering, 2018).

The conditions of experiment [1]: cited from earlier work.
In experiment [2] the test system is E. coli JW0013. Format: cell-based. The settings on record: for MIC E. coli JW0013: JW0013, 1 h; for MIC in 20% M9 / MIC in 20% MHB / MIC in 60% M9 / MIC in 60% MHB / MIC in 100% M9 / MIC in 100% MHB: JW0013, 6 h.
Experiment [3] has as its system Salmonella SL1344. The format is cell-based, Salmonella enterica serovar Typhimurium. The settings on record: 1 h.
In experiment [4] the test system is E. coli O157:H7. The format is cell-based. The settings on record: O157:H7, 1 h.
In experiment [5] the test system is E. coli JJ2487. The format is cell-based. The settings on record: JJ2487, 1 h.
The test system of experiment [6] is E. coli MC1061. Format: cell-based. The settings on record: MC1061, 1 h.
For experiment [7], the system named is Salmonella MH91989. The format is cell-based, Salmonella enterica serovar Enteritidis. The settings on record: 1 h.
The subject of experiment [8] is E. coli J2210. The format is cell-based. As to conditions: J2210, 1 h.

No end group written: not given here.

For the substance VDKPPYLPRPRPPRrIYNr-NH2 [Onc112], in experiment [1], the “antimicrobial activity compared to Onc18” value is “improved”.
Consider “VDKKPYKPRPRPPRRIYNR-NH2 [VDKKPYKPRPRPPRRIYNR-NH2]”, for which, in experiment [2], the “MIC E. coli JW0013” value is 0.30 ± 0.07 µg/mL, the “MIC in 20% M9” value turned out to be 0.30 ± 0.09 µg/mL, the “MIC in 20% MHB” value worked out at 0.20 ± 0.09 µg/mL and the “MIC in 60% M9” value amounted to 1.57 ± 0.68 µg/mL. Moreover, in experiment [2], the “MIC in 60% MHB” value turned out to be 0.79 ± 0.35 µg/mL, the “MIC in 100% M9” value stood at 9.60 ± 2.00 µg/mL and the “MIC in 100% MHB” value is 2.40 ± 0.56 µg/mL. Besides, in experiment [3], the “MIC Salmonella SL1344” value was 0.42 ± 0.21 µg/mL. Further, the “MIC E. coli O157:H7” value in experiment [4] was determined as 1.57 ± 0.68 µg/mL. Further, the “MIC E. coli JJ2487” value in experiment [5] came out at 0.30 ± 0.07 µg/mL. For the same substance, in experiment [6], the “MIC E. coli MC1061” value came to 0.15 ± 0.03 µg/mL. In addition, the “MIC Salmonella MH91989” value in experiment [7] stood at 0.42 ± 0.21 µg/mL. In experiment [8], the “MIC E. coli J2210” value was 0.20 ± 0.09 µg/mL.
Take “VDKRPYLPRPRPPRRIYNR-NH2 [VDKRPYLPRPRPPRRIYNR-NH2]”: the “MIC E. coli JW0013” value in experiment [2] was determined as 0.83 ± 0.42 µg/mL. For the same substance, in experiment [3], the “MIC Salmonella SL1344” value stood at 0.60 ± 0.14 µg/mL. Also, the “MIC E. coli O157:H7” value in experiment [4] is 2.40 ± 0.56 µg/mL. Moreover, the “MIC E. coli JJ2487” value in experiment [5] worked out at 0.39 ± 0.18 µg/mL. The “MIC E. coli MC1061” value in experiment [6] was 0.30 ± 0.07 µg/mL. The “MIC Salmonella MH91989” value in experiment [7] came out at 0.60 ± 0.14 µg/mL. Further, the “MIC E. coli J2210” value in experiment [8] was 0.60 ± 0.14 µg/mL.
Consider “VDKPPYKPRPRPPRRIYNR-NH2 [VDKPPYKPRPRPPRRIYNR-NH2]”, for which the “MIC E. coli JW0013” value in experiment [2] is 0.60 ± 0.14 µg/mL. Moreover, the “MIC Salmonella SL1344” value in experiment [3] is 0.60 ± 0.14 µg/mL. In experiment [4], the “MIC E. coli O157:H7” value was determined as 2.40 ± 0.56 µg/mL. The “MIC E. coli JJ2487” value in experiment [5] came out at 0.79 ± 0.35 µg/mL. In addition, the “MIC E. coli MC1061” value in experiment [6] turned out to be 0.15 ± 0.03 µg/mL. The “MIC Salmonella MH91989” value in experiment [7] was 0.60 ± 0.14 µg/mL. Further, in experiment [8], the “MIC E. coli J2210” value was determined as 0.30 ± 0.07 µg/mL.
With VDKPPYLPRPRPPROIYNO-NH2 [Onc72], in experiment [1], the “antimicrobial activity compared to Onc18” value is “improved”.
With “VDKKPYRPRPRPPRRIYNR-NH2 [VDKKPYRPRPRPPRRIYNR-NH2]”, in experiment [2], the “MIC E. coli JW0013” value is 0.39 ± 0.18 µg/mL, the “MIC in 20% M9” value came to 0.39 ± 0.18 µg/mL, the “MIC in 20% MHB” value came to 0.20 ± 0.09 µg/mL and the “MIC in 60% M9” value was 1.20 ± 0.28 µg/mL. Further, in experiment [2], the “MIC in 60% MHB” value worked out at 0.60 ± 0.14 µg/mL, the “MIC in 100% M9” value worked out at 9.60 ± 2.00 µg/mL and the “MIC in 100% MHB” value is 2.40 ± 0.56 µg/mL. Besides, the “MIC Salmonella SL1344” value in experiment [3] is 0.39 ± 0.18 µg/mL. The “MIC E. coli O157:H7” value in experiment [4] amounted to 1.57 ± 0.68 µg/mL. The “MIC E. coli JJ2487” value in experiment [5] worked out at 0.30 ± 0.07 µg/mL. In addition, in experiment [6], the “MIC E. coli MC1061” value was determined as 0.15 ± 0.03 µg/mL. Further, the “MIC Salmonella MH91989” value in experiment [7] was found to be 0.39 ± 0.18 µg/mL. Besides, the “MIC E. coli J2210” value in experiment [8] was determined as 0.30 ± 0.07 µg/mL.
As for “VDKPPYLPRPRPPRRIYNR-NH2 [VDKPPYLPRPRPPRRIYNR-NH2, reference compound]”, in experiment [2], the “MIC E. coli JW0013” value turned out to be 0.83 ± 0.42 µg/mL, the “MIC in 20% M9” value is 0.60 ± 0.14 µg/mL, the “MIC in 20% MHB” value was 0.79 ± 0.35 µg/mL and the “MIC in 60% M9” value was 1.20 ± 0.28 µg/mL. In experiment [2], the “MIC in 60% MHB” value amounted to 1.20 ± 0.28 µg/mL, the “MIC in 100% M9” value stood at 2.40 ± 0.56 µg/mL and the “MIC in 100% MHB” value is 2.40 ± 0.56 µg/mL. For the same substance, the “MIC Salmonella SL1344” value in experiment [3] is 0.60 ± 0.14 µg/mL. The “MIC E. coli O157:H7” value in experiment [4] came to 3.14 ± 1.28 µg/mL. In addition, the “MIC E. coli JJ2487” value in experiment [5] amounted to 0.60 ± 0.14 µg/mL. The “MIC E. coli MC1061” value in experiment [6] was found to be 0.30 ± 0.07 µg/mL. For the same substance, the “MIC Salmonella MH91989” value in experiment [7] was 0.60 ± 0.14 µg/mL. Besides, the “MIC E. coli J2210” value in experiment [8] was 0.79 ± 0.35 µg/mL.
For the substance “VDKRPYRPRPRPPRRIYNR-NH2 [VDKRPYRPRPRPPRRIYNR-NH2]”, the “MIC E. coli JW0013” value in experiment [2] came out at 0.39 ± 0.18 µg/mL. The “MIC Salmonella SL1344” value in experiment [3] was determined as 0.39 ± 0.18 µg/mL. The “MIC E. coli O157:H7” value in experiment [4] is 1.66 ± 0.82 µg/mL. In experiment [5], the “MIC E. coli JJ2487” value was found to be 0.42 ± 0.21 µg/mL. Besides, the “MIC E. coli MC1061” value in experiment [6] was 0.15 ± 0.03 µg/mL. For the same substance, in experiment [7], the “MIC Salmonella MH91989” value came out at 0.42 ± 0.21 µg/mL. Also, the “MIC E. coli J2210” value in experiment [8] was 0.30 ± 0.07 µg/mL.
Turning to “VDKPPYRPRPRPPRRIYNR-NH2 [VDKPPYRPRPRPPRRIYNR-NH2]”, the “MIC E. coli JW0013” value in experiment [2] stood at 0.42 ± 0.21 µg/mL. In addition, in experiment [3], the “MIC Salmonella SL1344” value is 0.42 ± 0.21 µg/mL. Moreover, the “MIC E. coli O157:H7” value in experiment [4] is 2.40 ± 0.56 µg/mL. Moreover, the “MIC E. coli JJ2487” value in experiment [5] was determined as 0.39 ± 0.18 µg/mL. For the same substance, in experiment [6], the “MIC E. coli MC1061” value is 0.20 ± 0.09 µg/mL. For the same substance, the “MIC Salmonella MH91989” value in experiment [7] was 0.60 ± 0.14 µg/mL. Moreover, in experiment [8], the “MIC E. coli J2210” value is 0.39 ± 0.18 µg/mL.
Turning to “VDKKPYLPRPRPPRRIYNR-NH2 [VDKKPYLPRPRPPRRIYNR-NH2]”, in experiment [2], the “MIC E. coli JW0013” value stood at 0.60 ± 0.14 µg/mL. Further, the “MIC Salmonella SL1344” value in experiment [3] worked out at 0.60 ± 0.14 µg/mL. The “MIC E. coli O157:H7” value in experiment [4] turned out to be 2.40 ± 0.56 µg/mL. Also, the “MIC E. coli JJ2487” value in experiment [5] was 0.60 ± 0.14 µg/mL. Also, the “MIC E. coli MC1061” value in experiment [6] turned out to be 0.30 ± 0.07 µg/mL. The “MIC Salmonella MH91989” value in experiment [7] was 0.60 ± 0.14 µg/mL. In addition, in experiment [8], the “MIC E. coli J2210” value was found to be 0.39 ± 0.18 µg/mL.
